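Test compounds were applied to cells in 96-well plates for 48 hours at 5 doses. The concentration for full growth arrest is given as TGI.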
Experiments:
Assay in all cases: NCI tumour cell line growth inhibition, 48 h
[1] = tested on: COLO 205 colon
[2] = tested on: M14 melanoma
[3] = tested on: DMS 114 small cell lung
[4] = tested on: HCT-116 colon
[5] = tested on: UO-31 renal
[6] = tested on: HOP-62 NSCLC
[7] = tested on: OVCAR-5 ovarian
[8] = tested on: CAKI-1 renal
[9] = tested on: MALME-3M melanoma
[10] = tested on: SF-295 CNS
[11] = tested on: SNB-78 CNS
[12] = tested on: NCI-H226 lung
[13] = tested on: RXF-631 renal
[14] = tested on: HL-60(TB) leukemia
[15] = tested on: KM20L2 colon
[16] = tested on: MOLT-4 leukemia
[17] = tested on: SK-MEL-2 melanoma
[18] = tested on: HOP-92 NSCLC
[19] = tested on: 786-0 renal
[20] = tested on: HT29 colon
[21] = tested on: NCI-H23 lung
[22] = tested on: HOP-18 NSCLC
[23] = tested on: UACC-257 melanoma
[24] = tested on: CCRF-CEM leukemia
[25] = tested on: OVCAR-4 ovarian
[26] = tested on: OVCAR-8 ovarian
[27] = tested on: NCI-H522 lung
[28] = tested on: SN12C renal
[29] = tested on: SNB-75 CNS
[30] = tested on: SNB-19 CNS
[31] = tested on: SF-268 CNS
[32] = tested on: ACHN renal
[33] = tested on: OVCAR-3 ovarian
[34] = tested on: SK-MEL-28 melanoma
[35] = tested on: HCT-15 colon
[36] = tested on: IGROV1 ovarian
[37] = tested on: HCC-2998 colon
[38] = tested on: A498 renal
[39] = tested on: KM12 colon
[40] = tested on: RPMI-8226 leukemia
[41] = tested on: SR leukemia
[42] = tested on: SW-620 colon
[43] = tested on: EKVX NSCLC
[44] = tested on: NCI-H460 lung
[45] = tested on: A549 NSCLC
[46] = tested on: RXF 393 renal
[47] = tested on: SK-OV-3 ovarian
[48] = tested on: TK-10 renal
[49] = tested on: DMS 273 small cell lung
[50] = tested on: SF-539 CNS
[51] = tested on: SK-MEL-5 melanoma
[52] = tested on: M19-MEL melanoma
[53] = tested on: LOX IMVI melanoma
[54] = tested on: UACC-62 melanoma
[55] = tested on: U251 CNS
[56] = tested on: XF 498 CNS
[57] = tested on: LXFL 529 NSCLC
[58] = tested on: DLD-1 colon
[59] = tested on: K-562 leukemia
[60] = tested on: P388 leukemia
[61] = tested on: NCI/ADR-RES ovarian
[62] = tested on: SN12K1 renal
[63] = tested on: MCF7 breast

CCOc1ccc(Nc2nc(C)c(C(=O)/C=C/c3ccc(Cl)cc3Cl)s2)cc1
TGI [1]: 32.3 µM | TGI [2]: 50.1 µM | TGI [3]: 56.5 µM | TGI [4]: 38.3 µM | TGI [5]: 51 µM | TGI [6]: 81.3 µM | TGI [7]: > 100 µM | TGI [8]: 55.4 µM | TGI [9]: 62.7 µM | TGI [10]: 38.5 µM | TGI [11]: 67.9 µM | TGI [12]: 36.9 µM | TGI [13]: 54.8 µM | TGI [14]: 65.6 µM | TGI [15]: 52.2 µM | TGI [16]: 51.5 µM | TGI [17]: 61.6 µM | TGI [18]: 68.3 µM | TGI [19]: 36.3 µM | TGI [20]: 39.4 µM | TGI [21]: 44.1 µM | TGI [22]: 66.7 µM | TGI [23]: 53.8 µM | TGI [24]: 80.2 µM | TGI [25]: 28.7 µM | TGI [26]: 40.7 µM | TGI [27]: 43.2 µM | TGI [28]: 37.1 µM | TGI [29]: 39.3 µM | TGI [30]: > 100 µM | TGI [31]: 77.3 µM | TGI [32]: 71 µM | TGI [33]: 41 µM | TGI [34]: 51 µM | TGI [35]: 48.6 µM | TGI [36]: 85.1 µM | TGI [37]: 43.9 µM | TGI [38]: 50.5 µM | TGI [39]: 33.5 µM | TGI [40]: > 100 µM | TGI [41]: 71.2 µM | TGI [42]: 38.7 µM | TGI [43]: 85.7 µM | TGI [44]: 42.6 µM | TGI [45]: 45.9 µM | TGI [46]: 40.6 µM | TGI [47]: 54.3 µM | TGI [48]: 52.6 µM | TGI [49]: 45 µM | TGI [50]: 78.8 µM | TGI [51]: 38.8 µM | TGI [52]: 47.4 µM | TGI [53]: 31.8 µM | TGI [54]: 77.4 µM | TGI [55]: 37.9 µM | TGI [56]: 39.1 µM | TGI [57]: 37.5 µM | TGI [58]: 84.5 µM | TGI [59]: 93.5 µM

NC1CCCCC1
TGI [1]: > 56.2 µM | TGI [3]: > 56.2 µM | TGI [4]: > 562 µM | TGI [6]: > 562 µM | TGI [7]: > 562 µM | TGI [9]: > 562 µM | TGI [60]: 243 µM | TGI [11]: > 562 µM | TGI [14]: 380 µM | TGI [15]: > 562 µM | TGI [16]: > 562 µM | TGI [17]: > 562 µM | TGI [18]: > 562 µM | TGI [20]: > 562 µM | TGI [21]: > 562 µM | TGI [22]: < 0.0562 µM | TGI [23]: > 562 µM | TGI [24]: > 562 µM | TGI [25]: > 562 µM | TGI [26]: > 562 µM | TGI [27]: > 562 µM | TGI [61]: > 562 µM | TGI [28]: > 562 µM | TGI [29]: > 562 µM | TGI [62]: > 562 µM | TGI [30]: > 562 µM | TGI [31]: > 562 µM | TGI [33]: > 562 µM | TGI [34]: > 562 µM | TGI [35]: > 562 µM | TGI [36]: > 562 µM | TGI [37]: > 562 µM | TGI [38]: > 562 µM | TGI [39]: > 562 µM | TGI [40]: > 562 µM | TGI [42]: > 562 µM | TGI [43]: > 562 µM | TGI [44]: > 562 µM | TGI [45]: > 562 µM | TGI [46]: > 562 µM | TGI [49]: > 562 µM | TGI [50]: 418 µM | TGI [51]: > 562 µM | TGI [52]: > 562 µM | TGI [53]: > 562 µM | TGI [54]: > 562 µM | TGI [55]: > 562 µM | TGI [63]: > 562 µM | TGI [58]: > 562 µM | TGI [59]: > 562 µM

— PubChem BioAssay (NCI)
